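A five-concentration, 48-hour dose response in 96-well plates underlies each endpoint, interpolated linearly between surrounding concentrations. GI50 is the concentration that inhibits growth by half.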 Active and inactive are the calls of the source. Rule as the data show it: active = GI50 up to about 1.1 µM and inactive = higher.
Experiments:
Test in all cases: NCI anticancer screen, dose series, 48 h
[1] = system: HCC 2998
[2] = system: OVCAR-3
[3] = system: U-251
[4] = system: NCI-H23
[5] = system: SF-295
[6] = system: SK-OV-3
[7] = system: IGROV-1
[8] = system: KM-20L2
[9] = system: SNB-19
[10] = system: NCI-H522
[11] = system: ACHN
[12] = system: OVCAR-4
[13] = system: CAKI-1
[14] = system: UACC-62
[15] = system: HOP-92
[16] = system: DU-145
[17] = system: A498
[18] = system: MDA-MB-231
[19] = system: NCI/ADR-RES
[20] = system: MDA-MB-435

Row | SMILES | GI50 [1] | GI50 [2] | GI50 [3] | GI50 [4] | GI50 [5] | GI50 [6] | GI50 [7] | GI50 [8] | GI50 [9] | GI50 [10] | GI50 [11] | GI50 [12] | GI50 [13] | GI50 [14] | GI50 [15] | GI50 [16] | GI50 [17] | GI50 [18] | GI50 [19] | GI50 [20]
1 | CNc1ccc([N+](=O)[O-])c2c(NCCCN(C)C)ccnc12 | > 100 µM (inactive) | > 100 µM (inactive) | > 100 µM (inactive) | 99.1 µM (inactive) | > 100 µM (inactive) | > 100 µM (inactive) | > 100 µM (inactive) | > 100 µM (inactive) | > 100 µM (inactive) | > 100 µM (inactive) | > 100 µM (inactive) | > 100 µM (inactive) | > 100 µM (inactive) | – | – | – | – | – | – | –
2 | CN(C)/C=N/C1CCC(C(C)(C)C)CC1 (stereo not given) | 14.8 µM (inactive) | 14.5 µM (inactive) | 16.1 µM (inactive) | 17.8 µM (inactive) | 17.4 µM (inactive) | 21.3 µM (inactive) | 21.5 µM (inactive) | – | 20.4 µM (inactive) | 16.6 µM (inactive) | 21.2 µM (inactive) | 18 µM (inactive) | 18.9 µM (inactive) | 19 µM (inactive) | 15.5 µM (inactive) | 24.9 µM (inactive) | 24 µM (inactive) | 13.6 µM (inactive) | 17.7 µM (inactive) | 18.7 µM (inactive)
3 | N=C(N)NC(=N)Nc1ccc(S(=O)(=O)O)cc1 | > 100 µM (inactive) | > 100 µM (inactive) | > 100 µM (inactive) | > 100 µM (inactive) | > 100 µM (inactive) | > 100 µM (inactive) | > 100 µM (inactive) | – | > 100 µM (inactive) | > 100 µM (inactive) | > 100 µM (inactive) | > 100 µM (inactive) | > 100 µM (inactive) | > 100 µM (inactive) | 77.8 µM (inactive) | > 100 µM (inactive) | > 100 µM (inactive) | > 100 µM (inactive) | > 100 µM (inactive) | > 100 µM (inactive)
4 | O=[N+]([O-])c1cccc(C(O)/C(=N/Nc2ccccc2)C2Nc3ccc([N+](=O)[O-])cc3N=C2O)c1 (stereo not given) | 33.4 µM (inactive) | 66.7 µM (inactive) | 88.1 µM (inactive) | > 100 µM (inactive) | 60.4 µM (inactive) | > 100 µM (inactive) | 38.7 µM (inactive) | 23.1 µM (inactive) | > 100 µM (inactive) | 19.7 µM (inactive) | 24.5 µM (inactive) | 78.5 µM (inactive) | – | 17.4 µM (inactive) | > 100 µM (inactive) | – | – | – | – | –
5 | CC1(C)OCC2OC(n3cnc4c(N)nc(Cl)nc43)C(OS(C)(=O)=O)C2O1 (stereo not given) | > 100 µM (inactive) | > 100 µM (inactive) | > 100 µM (inactive) | > 100 µM (inactive) | > 100 µM (inactive) | > 100 µM (inactive) | > 100 µM (inactive) | – | > 100 µM (inactive) | > 100 µM (inactive) | > 100 µM (inactive) | > 100 µM (inactive) | > 100 µM (inactive) | > 100 µM (inactive) | 45.3 µM (inactive) | > 100 µM (inactive) | > 100 µM (inactive) | > 100 µM (inactive) | > 100 µM (inactive) | > 100 µM (inactive)
6 | CC(C)(Cl)C(Cl)CC/C(CBr)=C(\Cl)CCl (stereo not given) | 14.4 µM (inactive) | 4.48 µM (inactive) | 4.24 µM (inactive) | 3.87 µM (inactive) | 16.3 µM (inactive) | 6 µM (inactive) | 2.04 µM (inactive) | – | 17.6 µM (inactive) | 0.658 µM (active) | 14.9 µM (inactive) | 2.79 µM (inactive) | 5.09 µM (inactive) | 1.67 µM (inactive) | 10.4 µM (inactive) | 13.4 µM (inactive) | 19.4 µM (inactive) | 2.57 µM (inactive) | 5.81 µM (inactive) | 3.36 µM (inactive)
7 | O=[N+]([O-])c1ccc(C2=Nc3ccccc3[S+]([O-])C(c3ccccc3)C2)cc1 (stereo not given) | 18.6 µM (inactive) | 17.5 µM (inactive) | – | 18.2 µM (inactive) | 31.3 µM (inactive) | 31.9 µM (inactive) | 15.3 µM (inactive) | 23.7 µM (inactive) | 20 µM (inactive) | 16.7 µM (inactive) | 21.4 µM (inactive) | 20.1 µM (inactive) | 18.8 µM (inactive) | 13.6 µM (inactive) | – | – | – | – | – | –
8 | O=c1c2cc([N+](=O)[O-])ccc2oc2nc3n(c(=O)c12)CCCS3 | > 100 µM (inactive) | > 100 µM (inactive) | > 100 µM (inactive) | > 100 µM (inactive) | > 100 µM (inactive) | > 100 µM (inactive) | > 100 µM (inactive) | – | > 100 µM (inactive) | > 100 µM (inactive) | > 100 µM (inactive) | > 100 µM (inactive) | > 100 µM (inactive) | > 100 µM (inactive) | > 100 µM (inactive) | > 100 µM (inactive) | > 100 µM (inactive) | > 100 µM (inactive) | > 100 µM (inactive) | > 100 µM (inactive)
9 | CC(C(=O)ON1C(=O)CCC1=O)c1ccc(C(=O)c2ccccc2)s1 (stereo not given) | > 100 µM (inactive) | > 100 µM (inactive) | > 100 µM (inactive) | > 100 µM (inactive) | > 100 µM (inactive) | > 100 µM (inactive) | > 100 µM (inactive) | – | > 100 µM (inactive) | > 100 µM (inactive) | > 100 µM (inactive) | > 100 µM (inactive) | > 100 µM (inactive) | > 100 µM (inactive) | > 100 µM (inactive) | > 100 µM (inactive) | > 100 µM (inactive) | > 100 µM (inactive) | > 100 µM (inactive) | > 100 µM (inactive)
10 | Cc1ccc(S(=O)(=O)NC(=O)NNc2ccc(F)cc2)cc1 | > 100 µM (inactive) | > 100 µM (inactive) | > 100 µM (inactive) | > 10 µM (inactive) | > 100 µM (inactive) | > 100 µM (inactive) | > 100 µM (inactive) | – | > 100 µM (inactive) | > 100 µM (inactive) | > 100 µM (inactive) | > 100 µM (inactive) | > 100 µM (inactive) | > 100 µM (inactive) | > 100 µM (inactive) | > 100 µM (inactive) | > 100 µM (inactive) | > 100 µM (inactive) | > 44 µM (inactive) | > 100 µM (inactive)
11 | CCOC(=O)c1sc2[n+](c1C)C(=O)/C(=C/c1ccccc1Cl)S2 | 1.7 µM (inactive) | 0.891 µM (active) | 0.583 µM (active) | 1.63 µM (inactive) | 0.324 µM (active) | 1.99 µM (inactive) | 1.84 µM (inactive) | – | 0.579 µM (active) | 0.532 µM (active) | 1.53 µM (inactive) | 33.3 µM (inactive) | 0.453 µM (active) | 0.447 µM (active) | 5.9 µM (inactive) | 1.85 µM (inactive) | 6.92 µM (inactive) | 3.06 µM (inactive) | 0.342 µM (active) | 0.281 µM (active)
12 | O=C1CCCCCC1CC(Sc1ccccc1)Sc1ccccc1 (stereo not given) | > 100 µM (inactive) | 46.9 µM (inactive) | > 100 µM (inactive) | 75.3 µM (inactive) | > 100 µM (inactive) | > 100 µM (inactive) | > 100 µM (inactive) | – | > 100 µM (inactive) | 65.3 µM (inactive) | > 100 µM (inactive) | 96.4 µM (inactive) | > 100 µM (inactive) | 81.8 µM (inactive) | > 100 µM (inactive) | > 100 µM (inactive) | > 100 µM (inactive) | > 100 µM (inactive) | > 100 µM (inactive) | > 100 µM (inactive)
13 | O=C(CC(O)(C(F)(F)Cl)C(F)(F)Cl)CC(O)(C(F)(F)Cl)C(F)(F)Cl | 1.74 µM (inactive) | 1.12 µM (inactive) | 1.65 µM (inactive) | 0.975 µM (active) | 2.36 µM (inactive) | 1.87 µM (inactive) | 2.17 µM (inactive) | – | 1.71 µM (inactive) | 1.2 µM (inactive) | 0.927 µM (active) | 1.33 µM (inactive) | 2 µM (inactive) | 0.738 µM (active) | 0.75 µM (active) | 0.515 µM (active) | 2.21 µM (inactive) | 2.05 µM (inactive) | 2.06 µM (inactive) | 1.69 µM (inactive)
14 | CC(C)OP(=O)(OC(C)C)/C(N)=N/Nc1ccc([N+](=O)[O-])cc1 | > 100 µM (inactive) | > 100 µM (inactive) | > 100 µM (inactive) | 63 µM (inactive) | – | – | – | > 100 µM (inactive) | 77.4 µM (inactive) | 68.7 µM (inactive) | 69.8 µM (inactive) | > 100 µM (inactive) | > 100 µM (inactive) | 83 µM (inactive) | 46.7 µM (inactive) | – | – | – | – | –
15 | CC(C)c1cccc(C(C)C)c1NC(=O)/C(CC(=O)CC(c1ccccc1)c1c(O)c2ccccc2oc1=O)=N/O (stereo not given) | > 100 µM (inactive) | > 100 µM (inactive) | > 100 µM (inactive) | > 100 µM (inactive) | > 100 µM (inactive) | > 100 µM (inactive) | > 100 µM (inactive) | – | > 100 µM (inactive) | > 100 µM (inactive) | > 100 µM (inactive) | > 100 µM (inactive) | > 100 µM (inactive) | > 100 µM (inactive) | > 100 µM (inactive) | > 100 µM (inactive) | > 100 µM (inactive) | > 100 µM (inactive) | > 100 µM (inactive) | > 100 µM (inactive)
16 | CCOC(=O)C1=C(C#N)S(=O)(=O)c2c(oc(C)c2C)N1 | > 100 µM (inactive) | > 100 µM (inactive) | > 100 µM (inactive) | > 100 µM (inactive) | > 100 µM (inactive) | > 100 µM (inactive) | > 100 µM (inactive) | – | > 100 µM (inactive) | > 100 µM (inactive) | > 100 µM (inactive) | > 100 µM (inactive) | > 100 µM (inactive) | > 100 µM (inactive) | > 100 µM (inactive) | > 100 µM (inactive) | > 100 µM (inactive) | > 100 µM (inactive) | > 100 µM (inactive) | > 100 µM (inactive)

Reference: ChEMBL document CHEMBL1201862, “PubChem BioAssay data set” (2004)
